According to patent publication US10774064B2 (Cadent Therapeutics, Inc., priority 2016, dated 2020):

Target: T1, small-conductance Ca2+-activated K+ channels (SK channels, subtype 2) (Homo sapiens, UniProt Q9H2S1)
T1 construct: expressed in transfected cells; host or cells: HEK293
Experiment: whole-cell patch-clamp of ionic current through SK2 channels in HEK293 cells (SC100)
Format: cell-based
Details: whole-cell patch-clamp, HEK293 cells expressing SK2 channels; concentration that increases the basal current by 100%
How it was run: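 Whole-cell patch-clamp recording of current in HEK293 cells expressing SK2 channels. SC100 is the compound concentration that increases basal current by 100%.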

SMILES	SC100 (μM)
Cc1ccn(-c2cc(C(=O)O)nc(NC3CCC(F)(F)CC3)n2)n1 [NSSy6684, 2-((4,4-difluorocyclohexyl)amino)-6-(3-methyl-1H-pyrazol-1-yl)pyrimidine-4-carboxylic acid]	+ (+ means >1 uM)
Cc1ccn(-c2cc(OCCN(C)C)nc(NC3CCC(F)(F)CC3)n2)n1 [NSSy6686]	++ (++ means 200 nM-1000 nM)
CNc1cc(-n2ccc(C)n2)nc(NC2CCC(F)(F)CC2)n1 [NSSy6688]	++ (++ means 200 nM-1000 nM)
COC(C)c1cc(-c2nc(C)cs2)nc(NC2CCC(F)(F)CC2)n1 (stereo not shown) [NSSy6697, N-(4,4-difluorocyclohexyl)-4-(1-methoxyethyl)-6-(4-methylthiazol-2-yl)pyrimidin-2-amine]	+ (+ means >1 uM)
Cc1ccn(-c2cc(N)nc(NC3CCC(F)(F)CC3)n2)n1 [NSSy6698, N2-(4,4-difluorocyclohexyl)-6-(3-methyl-1H-pyrazol-1-yl)pyrimidine-2,4-diamine]	+ (+ means >1 uM)
COCCNc1cc(-n2ccc(C)n2)nc(NC2CCC(F)(F)CC2)n1 [NSSy6700]	+ (+ means >1 uM)
Cc1csc(-c2cc(-c3nc(C)cs3)nc(NC3CCC(F)(F)CC3)n2)n1 [NSSy6704, N-(4,4-difluorocyclohexyl)-4,6-bis(4-methylthiazol-2-yl)pyrimidin-2-amine]	+ (+ means >1 uM)
Cc1csc(-c2cc(C#N)nc(NC3CCC(F)(F)CC3)n2)n1 [NSSy6710, 2-((4,4-difluorocyclohexyl)amino)-6-(4-methylthiazol-2-yl)pyrimidine-4-carbonitrile]	+ (+ means >1 uM)
COCc1cc(-c2nc(C)cs2)nc(NC2CCC(F)(F)CC2)n1 [NSSy6711, N-(4,4-difluorocyclohexyl)-4-(methoxymethyl)-6-(4-methylthiazol-2-yl)pyrimidin-2-amine]	++ (++ means 200 nM-1000 nM)
Cc1ccn(-c2cc(OCCn3nncc3C)cc(NC3CCC(F)(F)CC3)n2)n1 [NSSy6719]	+++ (+++ means <200 nM)
Cc1cc(C)n(-c2cc(C#N)nc(NC3CCC(F)(F)CC3)n2)n1 [NSSy6721, 2-((4,4-difluorocyclohexyl)amino)-6-(3,5-dimethyl-1H-pyrazol-1-yl)pyrimidine-4-carbonitrile]	+ (+ means >1 uM)
Cc1ccn(-c2cc(C#N)nc(NC3CCC(F)(F)CC3)n2)n1 [NSSy6722, 2-((4,4-difluorocyclohexyl)amino)-6-(3-methyl-1H-pyrazol-1-yl)pyrimidine-4-carbonitrile]	+ (+ means >1 uM)
COCc1cc(-n2nc(C)cc2C)nc(NC2CCC(F)(F)CC2)n1 [NSSy6724]	++ (++ means 200 nM-1000 nM)
CO[C@@H](C)c1cc(-c2nc(C)cs2)nc(NC2CCC(F)(F)CC2)n1 [NSSy6729, (S)—N-(4,4-difluorocyclohexyl)-4-(1-methoxyethyl)-6-(4-methylthiazol-2-yl)pyrimidin-2-amine]	+ (+ means >1 uM)
Cc1csc(-c2cc(CO)cc(NC3CCC(F)(F)CC3)n2)n1 [NSSy6730, (2-((4,4-difluorocyclohexyl)amino)-6-(4-methylthiazol-2-yl)pyridin-4-yl) methanol]	++ (++ means 200 nM-1000 nM)
Cc1nc(NC2CCC(F)(F)CC2)nc(-n2nc(C)c(Br)c2C)c1Br [NSSy6736, 5-bromo-4-(4-bromo-3,5-dimethyl-1H-pyrazol-1-yl)-N-(4,4-difluorocyclohexyl)-6-methylpyrimidin-2-amine]	+ (+ means >1 uM)
COCc1cc(-n2ccc(C)n2)nc(NC2CCC(F)(F)CC2)n1 [NSSy6744, N-(4,4-difluorocyclohexyl)-4-(methoxymethyl)-6-(3-methyl-1H-pyrazol-1-yl)pyrimidin-2-amine]	++ (++ means 200 nM-1000 nM)
Cc1csc(-c2cc(C(O)c3nnc(C)o3)cc(NC3CCC(F)(F)CC3)n2)n1 (stereo not shown) [NSSy6750, (2-((4,4-difluorocyclohexyl)amino)-6-(4-methylthiazol-2-yl)pyridin-4-yl)(5-methyl-1,3,4-oxadiazol-2-yl)methanol]	++ (++ means 200 nM-1000 nM)
Cc1ccn(-c2cc(CO)cc(Nc3ccc(F)cc3F)n2)n1 [NSSy6773]	++ (++ means 200 nM-1000 nM)
Cc1csc(-c2cc(C(O)Cc3nnco3)cc(NC3CCC(F)(F)CC3)n2)n1 (stereo not shown) [NSSy6782, 1-(2-((4,4-difluorocyclohexyl)amino)-6-(4-methylthiazol-2-yl)pyridin-4-yl)-2-(1,3,4-oxadiazol-2-yl)ethan-1-ol]	++ (++ means 200 nM-1000 nM)
Cc1ccn(-c2cc(CN(C)C)nc(NC3CCC(F)(F)CC3)n2)n1 [NSSy6783, N-(4,4-difluorocyclohexyl)-4-((dimethylamino)methyl)-6-(3-methyl-1H-pyrazol-1-yl)pyrimidin-2-amine]	++ (++ means 200 nM-1000 nM)
Cc1ccn(-c2cc(CC#N)nc(NC3CCC(F)(F)CC3)n2)n1 [NSSy6800, 2-(2-((4,4-difluorocyclohexyl)amino)-6-(3-methyl-1H-pyrazol-1-yl)pyrimidin-4-yl)acetonitrile]	++ (++ means 200 nM-1000 nM)
Cc1ccn(-c2cc(CO)cc(N(C(N)=O)C3CCC(F)(F)CC3)n2)n1 [NSSy6812, 1-(4,4-difluorocyclohexyl)-1-(4-(hydroxymethyl)-6-(3-methyl-1H-pyrazol-1-yl)pyridin-2-yl) urea]	+ (+ means >1 uM)

SMILES	SC100 (μM)
Cc1ccn(-c2cc(C(O)c3cnco3)cc(NC3CCC(F)(F)CC3)n2)n1 (stereo not shown) [NSSy6846]	+ (+ means >1 uM)
Cc1cn(CCOc2cc(NC3CCC(F)(F)CC3)nc(-n3ccc(C)n3)c2)nn1 [NSSy6849]	++ (++ means 200 nM-1000 nM)
COc1cc(NC2CCC(F)(F)CC2)nc(-n2ccc(C3CC3)n2)n1 [NSSy6850]	++ (++ means 200 nM-1000 nM)
COCc1cc(NC2CCC(F)(F)CC2)nc(-n2nc(C)cc2C)c1 [NSSy6861, N-(4,4-difluorocyclohexyl)-6-(3,5-dimethyl-1H-pyrazol-1-yl)-4-(methoxymethyl)pyridin-2-amine]	++ (++ means 200 nM-1000 nM)
COCc1cc(NC2CCC(F)(F)CC2)nc(-n2ccc(C3CC3)n2)n1 [NSSy6880]	++ (++ means 200 nM-1000 nM)
CC(O)c1cc(NC2CCC(F)(F)CC2)nc(-n2ccc(C3CC3)n2)n1 (stereo not shown) [NSSy6881, 1-(2-(3-cyclopropyl-1H-pyrazol-1-yl)-6-((4,4-difluorocyclohexyl)amino)pyrimidin-4-yl) ethan-1-ol]	+ (+ means >1 uM)
COC(=O)N1CCC(c2cc(NC3CCC(F)(F)CC3)nc(-n3ccc(C)n3)c2)CC1 [NSSy6885]	+++ (+++ means <200 nM)
CC(=O)N1CCN(c2cc(-n3ccc(F)n3)nc(NC3CCC(F)(F)CC3)n2)CC1 [NSSy6886]	+ (+ means >1 uM)
Cc1ccn(-c2cc(C3CCN(C)CC3)cc(NC3CCC(F)(F)CC3)n2)n1 [NSSy6888]	+++ (+++ means <200 nM)
COc1cc(NC2CCC(F)(F)CC2)nc(-c2cccc(C)n2)n1 [NSSy6889]	+ (+ means >1 uM)
Cc1ccn(-c2cc(COC(N)=O)cc(NC3CCC(F)(F)CC3)n2)n1 [NSSy6891, (2-((4,4-difluorocyclohexyl)amino)-6-(3-methyl-1H-pyrazol-1-yl)pyridin-4-yl)methyl carbamate]	++ (++ means 200 nM-1000 nM)
Cc1ccn(-c2cc(C3CCNCC3)cc(NC3CCC(F)(F)CC3)n2)n1 [NSSy6897, N-(4,4-difluorocyclohexyl)-6-(3-methyl-1H-pyrazol-1-yl)-4-(piperidin-4-yl)pyridin-2-amine]	++ (++ means 200 nM-1000 nM)
CC(=O)N1CCN(c2cc(-n3ccc(C4CC4)n3)nc(NC3CCC(F)(F)CC3)n2)CC1 [NSSy6909, 1-(4-(6-(3-cyclopropyl-1H-pyrazol-1-yl)-2-((4,4-difluorocyclohexyl)amino)pyrimidin-4-yl)piperazin-1-yl)ethan-1-one]	++ (++ means 200 nM-1000 nM)
CC(=O)N1CCC(c2cc(NC3CCC(F)(F)CC3)nc(-n3ccc(C)n3)c2)CC1 [NSSy6910]	+++ (+++ means <200 nM)
Cc1ccn(-c2cc(OC3CCS(=O)(=O)CC3)nc(NC3CCC(F)(F)CC3)n2)n1 [NSSy6913]	++ (++ means 200 nM-1000 nM)
CC(=O)N1CCC(Oc2cc(-n3ccc(C)n3)nc(NC3CCC(F)(F)CC3)n2)CC1 [NSSy6914]	+++ (+++ means <200 nM)
CC(=O)N1CCN(c2cc(-n3ccc(CF)n3)nc(NC3CCC(F)(F)CC3)n2)CC1 [NSSy6917]	++ (++ means 200 nM-1000 nM)
COC(=O)N1CCN(c2cc(-n3ccc(C)n3)nc(NC3CCC(F)(F)CC3)n2)CC1 [NSSy6924, methyl 4-(2-((4,4-difluorocyclohexyl)amino)-6-(3-methyl-1H-pyrazol-1-yl)pyrimidin-4-yl)piperazine-1-carboxylate]	++ (++ means 200 nM-1000 nM)
CC(=O)N1CCN(c2cc(-n3ccc(C(F)F)n3)nc(NC3CCC(F)(F)CC3)n2)CC1 [NSSy6930, 1-(4-(2-((4,4-difluorocyclohexyl)amino)-6-(3-(difluoromethyl)-1H-pyrazol-1-yl)pyrimidin-4-yl)piperazin-1-yl)ethan-1-one]	++ (++ means 200 nM-1000 nM)
CC(=O)N1CCN(c2cc(-n3ccc(CO)n3)nc(NC3CCC(F)(F)CC3)n2)CC1 [NSSy6931, 1-(4-(2-((4,4-difluorocyclohexyl)amino)-6-(3-(hydroxymethyl)-1H-pyrazol-1-yl)pyrimidin-4-yl)piperazin-1-yl)ethan-1-one]	+ (+ means >1 uM)
Cc1cc(NC2CCC(F)(F)CC2)nc(-n2ccc(C3CC3)n2)n1 [NSSy6935]	++ (++ means 200 nM-1000 nM)
COc1ccn(-c2cc(N3CCN(C(C)=O)CC3)nc(NC3CCC(F)(F)CC3)n2)n1 [NSSy6936]	+ (+ means >1 uM)
FC1(F)CCC(Nc2ccnc(-n3ccc(C4CC4)n3)n2)CC1 [NSSy6941, 2-(3-cyclopropyl-1H-pyrazol-1-yl)-N-(4,4-difluorocyclohexyl)pyrimidin-4-amine]	+ (+ means >1 uM)
